Values joined by “and” are separate entries in the source; they are usually repeats but may differ in a detail not shown here. Equal values may be shown once. Read-outs that look alike come from different tables or passages of the source.
How the values were obtained:
Type in all cases: cell-based
[1] = MTT cytotoxicity assay, HL60 cells; details: human, hl60 cells, HL60, 30 min., read-out: % Inhibition MTT Reduction
Text: (§1) This experiment describes the affect of asperlin on cellular respiration (mitochondrial activity) by measuring the reduction of the tetrazolium salt MTT to formazan crystals (Moseman, et al). This assay served as a control to ensure that the decrease in the fluorescence observed in Example I, Table I, was not the result of the fluorescent dye leaking from the cells due to disruption of the cell membrane. To address this issue, the mitochondrial activity of β2 and β1 integrin expressing cells in the presence of asperlin was quantitated using a commercially available MTT cytotoxicity kit (Promega No. G4100).
(§2) HL60 and U937 cells were purchased from the American Type Culture Collection (ATCC) and maintained in RPMI 1640 culture media containing 10% heat inactivated fetal bovine serum (refer to Example I, materials). HL60 cells were used between passages 20 and 30. HL60 cells were stimulated by a four day exposure to DMSO, as described in Example I, materials. Falcon round bottom tissue culture plates (No. 3077) were used for the experiment. All remaining reagents were supplied in Promega's MTT cytotoxicity kit (Catalog No. G4100).
(§3) The assay procedure described in the Promega MTT kit was used with the following changes.
(§4) Asperlin was solubilized in 100% DMSO at a concentration of 50 mg/ml. The 50 mg/ml asperlin stock was diluted to 400 μg/ml with culture media containing 5% fetal bovine serum (FBS). This solution was further diluted to 80 and 20 μg/ml with culture media supplemented with 5% FBS plus 2% DMSO. 50 μl of the 20 and 80 μg/ml asperlin solutions were added to wells of a sterile, round bottom 96 well assay plate. Control wells received 50 μl of culture media containing 5% FBS plus 2% DMSO. Duplicate assay wells were prepared such that U937 and HL60 cells could be evaluated on the same plate. The cell density of β1 integrin expressing U937, and β2 integrin expressing HL60 cell cultures were determined using a hemacytometer.
(§5) Cells were harvested by centrifuging for 5 minutes at 1000 rpm, room temperature, in a Sorvall RT600 bench-top centrifuge. The HL60 cell pellet was resuspended in fresh culture media at a concentration of 5×10^6 cells/ml. The U937 cell pellet was resuspended in fresh culture media at a concentration of 2.5×10^6 cells/ml. 2.5×10^5 β2 integrin expressing HL60 cells, contained in 50 μl, were added to wells of the assay plate using a multichannel pipettor. In duplicate assay wells, 1.25×10^5 β1 integrin expressing U937 cells, contained in 50 μl, were added to wells of the assay plate using a multichannel pipettor. Assay plates were incubated for either 30 minutes, 60 minutes, or 4 hours in a 37° C. 5% CO2, humidified incubator.
(§6) At the appropriate time point, 15 μl of MTT reagent, supplied in the Promega assay kit, was added to each well using a multichannel pipettor. Assay plates were incubated in the 37° C. incubator, as just described, for two hours. The MTT reduction reaction was quenched, and the visible formazan crystals were solubilized by adding exactly 100 μl of Promega's solubilization buffer to each well. […] The optical density (OD) of each well of the assay plate was determined using a microtiter plate reader (Flow Labs) set at a wavelength of 580 nm with a correction wavelength of 630 nm.
(§7) Replicate sample ODs were average. The percentage of inhibition of cellular respiration (mitochondrial activity) by asperlin was quantitated by the following equation: […]

HL60 cells = assay: MTT cytotoxicity assay, HL60 cells; details: for Average Optical Density: HL60, 30 min.
Text: as §1, §2, §3, §4, §5, §6, §7

E-selectin = target: T1, E-selectin (Homo sapiens, UniProt P16581); assay: Adhesion of HL60 cells to recombinant, soluble, human E-selectin; details: for Percent Cells Bound: single well
T1 construct: calcein-labelled HL60 cells adhere
T1 sequence (P16581 22-556 limits assumed): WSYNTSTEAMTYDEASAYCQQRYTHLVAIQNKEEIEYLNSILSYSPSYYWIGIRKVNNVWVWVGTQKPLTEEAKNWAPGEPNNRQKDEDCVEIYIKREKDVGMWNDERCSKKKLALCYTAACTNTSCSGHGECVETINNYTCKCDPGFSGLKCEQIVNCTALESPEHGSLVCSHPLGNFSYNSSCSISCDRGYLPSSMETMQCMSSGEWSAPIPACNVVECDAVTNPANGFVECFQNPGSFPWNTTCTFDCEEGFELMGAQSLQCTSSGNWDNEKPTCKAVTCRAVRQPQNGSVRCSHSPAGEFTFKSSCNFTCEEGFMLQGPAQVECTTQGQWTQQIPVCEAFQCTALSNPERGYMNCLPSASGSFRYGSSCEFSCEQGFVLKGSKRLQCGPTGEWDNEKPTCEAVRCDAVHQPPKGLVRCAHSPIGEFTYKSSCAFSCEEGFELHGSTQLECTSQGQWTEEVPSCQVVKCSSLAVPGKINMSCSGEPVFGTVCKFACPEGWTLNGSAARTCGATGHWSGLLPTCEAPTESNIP
Method: rsE-selectin was prepared and purified using standard molecular biology techniques. HL60 cells were obtained from American Type Culture Collection (ATCC) and maintained in culture media, as described in Example I, except that cells could be used in the assay at any passage number. Other materials required for the assay are as described in Examples I and II.
200 ng of purified, recombinant, soluble E-selectin contained in 100 μl of dPBS was added to wells of a flat bottom 96 well EIA/RIA plate. The control wells were filled with dPBS only and the assay plate was incubated at 4° C. for at least 18 hours to allow the rsE-selectin to bind to assay wells. The rsE-selectin solution was removed from the wells of the assay plate, washed, and blocked with 1% BSA, as described in Example II.
HL60 cells were harvested from culture, washed and labeled with calcein AM as outlined in Example I, except that the concentration of calcein used to label the HL-60 cells was 12.5 μM and cells were centrifuged at 1000 rpm for 5 minutes. After the final cell wash (see Example I), the cells were resuspended in ice-cold PMN buffer to 1.0×10^5 cells/40 μl and the cells were placed in the dark at room temperature until added to the assay plate.
The asperlin solutions were prepared as described in Example I. The dPBS remaining in the wells of the assay plate was removed by inverting the plate and tapping it on paper toweling and the assay was performed as described in Example II. 100 μl of PMN buffer was added to all wells of the assay plate and the fluorescence of the adherent HL-60 cells binding to rsE-selectin was measured using a fluorescent plate reader, described in Example I. The percentage of HL60 cells binding to E-selectin and the percentage of inhibition of HL60 cell adhesion to E-selectin in the presence of asperlin were also quantitated as described in Example II.

Q: For `CC(=O)OC1C=CC(=O)OC1C1OC1C` [Asperlin, 6,7-Anhydro-2,3,8-trideoxy-D-galacto-oct-2-enoic acidδ-lactone 4-acetate], which cytotoxicity at 0.5 h ([1]; Asperlin 10 μg/mL) is on record?
A: The cytotoxicity at 0.5 h was 8%.

Q: What about the cytotoxicity at 0.5 h ([1]; Asperlin 40 μg/mL) of the same compound?
A: The cytotoxicity at 0.5 h was 27%.

Q: What about the “Average Optical Density” value (HL60 cells; Asperlin 10 μg/mL) of the same compound?
A: The value was “.819”.

Q: And the “Average Optical Density” value (HL60 cells; Asperlin 40 μg/mL)?
A: Its value is “.649”.

Q: And the “Cytotoxicity (in words)” value (HL60 cells; β2 integrin expressing HL60 cells)?
A: The value was “not cytotoxic”.

Q: What about the “Average Percent Bound” value (E-selectin; Asperlin 100 μg/ml) of the same compound?
A: Its value is 62%.

Q: And the “Bound Cell Fluorescence” value (E-selectin; Asperlin 100 μg/ml)?
A: The value was 1412 fluorescence units/well and 1096 fluorescence units/well.

Q: And the “Percent Cells Bound” value (E-selectin; Asperlin 100 μg/ml)?
A: Its value is 64% and 59%.

Q: What about the “Average Percent Bound” value (E-selectin; Asperlin 200 μg/ml) of the same compound?
A: Its value is 48%.

Q: What about the “Bound Cell Fluorescence” value (E-selectin; Asperlin 200 μg/ml) of the same compound?
A: Its value is 1124 fluorescence units/well and 887 fluorescence units/well.

Q: And the “Percent Cells Bound” value (E-selectin; Asperlin 200 μg/ml)?
A: The value was 52% and 44%.

Q: And the inhibition at 100 µg/mL (E-selectin; HL-60, Asperlin 100 μg/ml)?
A: The inhibition at 100 µg/mL was -19%.

Q: And the inhibition at 200 µg/mL (E-selectin; HL-60, Asperlin 200 μg/ml)?
A: The inhibition at 200 µg/mL was 8%.

Q: And the “Effect on E-selectin mediated HL60 cell binding (in words)” value (E-selectin; summary of Table III)?
A: The value was “does not inhibit E-selectin mediated HL60 cell binding”.
